Source: patent US20230241064A1, “METHODS OF TREATMENT AND/OR PREVENTION OF MAJOR ADVERSE CARDIOVASCULAR EVENTS (MACE) WITH A COMBINATION OF A BET BROMODOMAIN INHIBITOR AND A DIPEPTIDYL PEPTIDASE 4 INHIBITOR” (Resverlogix Corp., priority 2020, published 2023)

Key:
[1] = EXAMINE; cited from earlier work
[2] = test system: type 2 diabetes patients with low HDL cholesterol and a recent acute coronary syndrome (ACS); assay: BETonMACE Phase 3 trial post-hoc analysis: cumulative incidence of narrowly defined MACE; type: in vivo, human
Procedure: Patients (n=2425) with ACS in the preceding 7 to 90 days, with type 2 diabetes and low HDL cholesterol (≤40 mg/dl for men, ≤45 mg/dl for women), receiving intensive or maximum-tolerated therapy with atorvastatin or rosuvastatin, were assigned in double-blind fashion to receive apabetalone 100 mg orally twice daily or matching placebo. Baseline characteristics include female sex (25%), myocardial infarction as index ACS event (74%), coronary revascularization for index ACS (76%), treatment with dual anti-platelet therapy (87%) and renin-angiotensin system inhibitors (91%), median LDL cholesterol 65 mg per deciliter, and median HbA1c 7.3%. The primary efficacy measure is time to first occurrence of cardiovascular death, non-fatal myocardial infarction, or stroke. Assumptions include a primary event rate of 7% per annum in the placebo group and median follow-up of 1.5 years. Patients were followed until at least 250 primary endpoint events had occurred, providing 80% power to detect a 30% reduction in the primary endpoint with apabetalone.
Those patients who received at least one dose of DPP-4 inhibitor treatment after the date of the first incidence of event were censored as non-MACE events and the date of last contact was used as the censoring date.
The distributions of the endpoints within the apabetalone and placebo groups were compared using a two-sided log-rank test (LRT) with an alpha=0.05 level of significance. The cumulative incidence is shown as 1-KM (Kaplan-Meier) estimate for event rate.

[3] = test system: type 2 diabetes patients with low HDL cholesterol and a recent acute coronary syndrome (ACS); assay: BETonMACE post-hoc analysis: cumulative incidence of broadly defined MACE; type: in vivo, human; details: patients without DPP-4 inhibitor; vs placebo (non-treatment); FIG. 5
[4] = test system: type 2 diabetes patients with low HDL cholesterol and a recent acute coronary syndrome (ACS); assay: BETonMACE post-hoc analysis: cumulative incidence of non-fatal myocardial infarction; type: in vivo, human; details: patients without DPP-4 inhibitor; vs placebo (non-treatment); FIG. 8
Procedure: (§1) Apabetalone (RVX-208) was evaluated in a recently completed clinical Phase 3 trial (BETonMACE; NCT02586155) for the effect on MACE in type 2 diabetes patients with low HDL cholesterol (below 40 mg/dL for males and below 45 mg/dL for females) and a recent acute coronary syndrome (ACS). All patients received high intensity statin treatment, which was 20-40 mg daily or a maximum daily dose of 40 mg for rosuvastatin or 40-80 mg daily or a maximum daily dose of 80 mg for atorvastatin.
(§2) Patients (n=2425) with ACS in the preceding 7 to 90 days, with type 2 diabetes and low HDL cholesterol (≤40 mg/dl for men, ≤45 mg/dl for women), receiving intensive or maximum-tolerated therapy with atorvastatin or rosuvastatin, were assigned in double-blind fashion to receive apabetalone 100 mg orally twice daily or matching placebo. Baseline characteristics include female sex (25%), myocardial infarction as index ACS event (74%), coronary revascularization for index ACS (76%), treatment with dual anti-platelet therapy (87%) and renin-angiotensin system inhibitors (91%), median LDL cholesterol 65 mg per deciliter, and median HbA1c 7.3%. The primary efficacy measure is time to first occurrence of cardiovascular death, non-fatal myocardial infarction, or stroke. Assumptions include a primary event rate of 7% per annum in the placebo group and median follow-up of 1.5 years. […]

[5] = test system: type 2 diabetes patients with low HDL cholesterol and a recent acute coronary syndrome (ACS); assay: BETonMACE post-hoc analysis: cumulative incidence of cardiovascular death; type: in vivo, human; details: patients without DPP-4 inhibitor; vs placebo (non-treatment); FIG. 11
Procedure: as §1, §2

[6] = test system: type 2 diabetes patients with low HDL cholesterol and a recent acute coronary syndrome (ACS); assay: BETonMACE post-hoc analysis: cumulative incidence of hospitalization for congestive heart failure; type: in vivo, human; details: patients without DPP-4 inhibitor, vs placebo (non-treatment)
[7] = vs placebo; TECOS trial; cited from earlier work

Cn1c(=O)cc(N2CCC[C@@H](N)C2)n(Cc2ccccc2C#N)c1=O [alogliptin]
effect on the 3-point MACE composite outcome of cardiovascular death, myocardial infarction, or ischemic stroke [1]: neutral effect

COc1cc(OC)c2c(=O)[nH]c(-c3cc(C)c(OCCO)c(C)c3)nc2c1 [apabetalone, 2-(4-(2-hydroxyethoxy)-3,5-dimethylphenyl)-5,7-dimethoxyquinazolin-4(3H)-one]
number of primary end points (narrowly defined MACE: cardiovascular death, non-fatal myocardial infarction, or stroke) ([2]; apabetalone 100 mg orally twice daily, on statin, per treatment group): 114 | Kaplan-Meier estimated event rate, narrowly defined MACE ([2]; at 18 months): 8.0% | Hazard Ratio, narrowly defined MACE ([2]; patients without DPP-4 inhibitor, vs placebo (non-treatment), FIG. 2): 0.99 | primary end points (narrowly defined MACE) as percent of group ([2]; per treatment group): 10.9% | Hazard Ratio, broadly defined MACE [3]: 1.00 | Hazard Ratio, non-fatal myocardial infarction [4]: 0.99 | Hazard Ratio, cardiovascular death [5]: 0.97 | reduction of number of patients having a hospitalization for congestive heart failure event at any given time [6]: 27% | Hazard Ratio, hospitalization for congestive heart failure ([6]; FIG. 14): 0.73

N[C@@H](CC(=O)N1CCn2c(nnc2C(F)(F)F)C1)Cc1cc(F)c(F)cc1F [sitagliptin]
hazard ratio (HR), 3-point MACE composite outcome [7]: 0.99 | hazard ratio (HR), 4-point MACE composite outcome [7]: 0.98
